Results taken from patent US12077503B2, “Substituted cyclic amides and their use as herbicides” (FMC CORPORATION, priority 2015, dated 2024).

Columns and labels:
Format in all cases: in vivo
Kochia (Kochia scoparia) [1] = test: Test A postemergence; details: Bassia scoparia, post-emergence, 240 h; for pest or weed control at 125 g/ha: 125 g ai/ha, postemergence, visual injury on 0 to 100 scale (0 no effect, 100 complete control), approx. 10 d, read-out: Kochia plant response rating; for pest or weed control at 31 g/ha: Postemergence, 31 g ai/ha, visual injury after approx. 10 d, 0 to 100 scale, 0 no effect, 100 complete control, read-out: Plant response rating, Kochia
Outline: (§1)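 Compounds were formulated in a non-phytotoxic solvent mixture with surfactant and applied as a preemergence directed soil spray after seeding, or sprayed postemergence over plants 2 to 10 cm tall at the one- to two-leaf stage. Evaluation after about 10 d compared treated with untreated controls, using a scale from 0 (no effect) to 100 (complete control).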

[2] = tested on: barnyardgrass (Echinochloa crus-galli); test: Test A postemergence; details: Echinochloa crus-galli, post-emergence, 240 h; for pest or weed control at 125 g/ha: 125 g ai/ha, postemergence, visual injury on 0 to 100 scale (0 no effect, 100 complete control), approx. 10 d, read-out: Barnyardgrass plant response rating; for pest or weed control at 31 g/ha: Postemergence, 31 g ai/ha, visual injury after approx. 10 d, 0 to 100 scale, 0 no effect, 100 complete control, read-out: Plant response rating, Barnyardgrass
Outline: as §1

[3] = tested on: ryegrass, Italian (Italian ryegrass, Lolium multiflorum); test: Test A postemergence; details: Lolium multiflorum, post-emergence, 240 h; for pest or weed control at 125 g/ha: 125 g ai/ha, postemergence, visual injury on 0 to 100 scale (0 no effect, 100 complete control), approx. 10 d, read-out: Ryegrass, Italian plant response rating; for pest or weed control at 31 g/ha: Postemergence, 31 g ai/ha, visual injury after approx. 10 d, 0 to 100 scale, 0 no effect, 100 complete control, read-out: Plant response rating, Ryegrass, Italian
Outline: as §1

[4] = tested on: pigweed (Amaranthus retroflexus); test: Test A postemergence; details: Amaranthus retroflexus, post-emergence, 240 h; for pest or weed control at 125 g/ha: 125 g ai/ha, postemergence, visual injury on 0 to 100 scale (0 no effect, 100 complete control), approx. 10 d, read-out: Pigweed plant response rating; for pest or weed control at 31 g/ha: Postemergence, 31 g ai/ha, visual injury after approx. 10 d, 0 to 100 scale, 0 no effect, 100 complete control, read-out: Plant response rating, Pigweed
Outline: as §1

[5] = tested on: ragweed (common ragweed, Ambrosia elatior); test: Test A postemergence; details: Ambrosia artemisiifolia, post-emergence, 240 h; for pest or weed control at 125 g/ha: 125 g ai/ha, postemergence, visual injury on 0 to 100 scale (0 no effect, 100 complete control), approx. 10 d, read-out: Ragweed plant response rating; for pest or weed control at 31 g/ha: Postemergence, 31 g ai/ha, visual injury after approx. 10 d, 0 to 100 scale, 0 no effect, 100 complete control, read-out: Plant response rating, Ragweed
Outline: as §1

[6] = tested on: blackgrass (Alopecurus myosuroides); test: Test A postemergence; details: Alopecurus myosuroides, post-emergence, 240 h; for pest or weed control at 125 g/ha: 125 g ai/ha, postemergence, visual injury on 0 to 100 scale (0 no effect, 100 complete control), approx. 10 d, read-out: Blackgrass plant response rating; for pest or weed control at 31 g/ha: Postemergence, 31 g ai/ha, visual injury after approx. 10 d, 0 to 100 scale, 0 no effect, 100 complete control, read-out: Plant response rating, Blackgrass
Outline: as §1

[7] = tested on: giant foxtail (Setaria faberii); test: Test A postemergence; details: Setaria faberi, post-emergence, 240 h; for pest or weed control at 125 g/ha: 125 g ai/ha, postemergence, visual injury on 0 to 100 scale (0 no effect, 100 complete control), approx. 10 d, read-out: Foxtail, Giant plant response rating; for pest or weed control at 31 g/ha: Postemergence, 31 g ai/ha, visual injury after approx. 10 d, 0 to 100 scale, 0 no effect, 100 complete control, read-out: Plant response rating, Foxtail, Giant
Outline: as §1

corn (Zea mays) = test: Test A postemergence; details: Zea mays, post-emergence, 240 h; for plant injury at 125 g/ha: 125 g ai/ha, postemergence, visual injury on 0 to 100 scale (0 no effect, 100 complete control), approx. 10 d, read-out: Corn plant response rating; for Corn plant response rating (crop injury, 0 = no effect, 100 = complete kill) at 31 g/ha: Postemergence, 31 g ai/ha, visual injury after approx. 10 d, 0 to 100 scale, 100 complete control
Outline: as §1

[8] = tested on: wheat (Triticum aestivum); test: Test A postemergence; details: Triticum aestivum, post-emergence, 240 h; for plant injury at 125 g/ha: 125 g ai/ha, postemergence, visual injury on 0 to 100 scale (0 no effect, 100 complete control), approx. 10 d, read-out: Wheat plant response rating; for plant injury at 31 g/ha: Postemergence, 31 g ai/ha, visual injury after approx. 10 d, 0 to 100 scale, 0 no effect, 100 complete control, read-out: Plant response rating, Wheat
Outline: as §1

Kochia (Kochia scoparia) [9] = test: Test A preemergence; details: Bassia scoparia, pre-emergence, 240 h, 0 to 100 scale where 0 is no effect and 100 is complete control, read-out: Kochia plant response rating; for pest or weed control at 31 g/ha: 31 g ai/ha, Preemergence; for pest or weed control at 125 g/ha: 125 g ai/ha, preemergence, approx. 10 d
Outline: as §1

[10] = tested on: barnyardgrass (Echinochloa crus-galli); test: Test A preemergence; details: Echinochloa crus-galli, pre-emergence, 240 h, 0 to 100 scale where 0 is no effect and 100 is complete control, read-out: Barnyardgrass plant response rating; for pest or weed control at 31 g/ha: 31 g ai/ha, Preemergence; for pest or weed control at 125 g/ha: 125 g ai/ha, preemergence, approx. 10 d
Outline: as §1

[11] = tested on: ryegrass, Italian (Italian ryegrass, Lolium multiflorum); test: Test A preemergence; details: Lolium multiflorum, pre-emergence, 240 h, 0 to 100 scale where 0 is no effect and 100 is complete control, read-out: Ryegrass, Italian plant response rating; for pest or weed control at 31 g/ha: 31 g ai/ha, Preemergence; for pest or weed control at 125 g/ha: 125 g ai/ha, preemergence, approx. 10 d
Outline: as §1

[12] = tested on: pigweed (Amaranthus retroflexus); test: Test A preemergence; details: Amaranthus retroflexus, pre-emergence, 240 h, 0 to 100 scale where 0 is no effect and 100 is complete control, read-out: Pigweed plant response rating; for pest or weed control at 31 g/ha: 31 g ai/ha, Preemergence; for pest or weed control at 125 g/ha: 125 g ai/ha, preemergence, approx. 10 d
[13] = tested on: ragweed (common ragweed, Ambrosia elatior); test: Test A preemergence; details: Ambrosia artemisiifolia, pre-emergence, 240 h, 0 to 100 scale where 0 is no effect and 100 is complete control, read-out: Ragweed plant response rating; for pest or weed control at 31 g/ha: 31 g ai/ha, Preemergence; for pest or weed control at 125 g/ha: 125 g ai/ha, preemergence, approx. 10 d
Outline: as §1

[14] = tested on: giant foxtail (Setaria faberii); test: Test A preemergence; details: Setaria faberi, pre-emergence, 240 h, 0 to 100 scale where 0 is no effect and 100 is complete control, read-out: Foxtail, Giant plant response rating; for pest or weed control at 31 g/ha: 31 g ai/ha, Preemergence; for pest or weed control at 125 g/ha: 125 g ai/ha, preemergence, approx. 10 d
Outline: as §1

rice (Oryra sativa) = test: Test B flooded paddy test; details: Oryza sativa, 250 g ai/ha, Flood; 0 to 100 scale where 0 is no effect and 100 is complete control; read-out: Rice plant response rating
Outline: (§2)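 2-leaf plants; pots flooded 3 cm over soil; cpd added to paddy water; depth held; greenhouse 13–15 d; visual rating vs controls, 0 = no effect, 100 = complete control.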

[15] = tested on: barnyardgrass (Echinochloa crus-galli); test: Test B flooded paddy test; details: Echinochloa crus-galli, 250 g ai/ha, Flood; 0 to 100 scale where 0 is no effect and 100 is complete control; read-out: Barnyardgrass plant response rating
Outline: as §2

[16] = tested on: ducksalad (Heteranthera limosa); test: Test B flooded paddy test; details: Heteranthera limosa, 250 g ai/ha, Flood; 0 to 100 scale where 0 is no effect and 100 is complete control; read-out: Ducksalad plant response rating
Outline: as §2

[17] = tested on: sedge, umbrella (small-flower umbrella sedge, Cyperus difformis); test: Test B flooded paddy test; details: Cyperus difformis, 250 g ai/ha, Flood; 0 to 100 scale where 0 is no effect and 100 is complete control; read-out: Sedge, Umbrella plant response rating
Outline: as §2

| SMILES | pest or weed control at 125 g/ha (Kochia (Kochia scoparia) [1]) | pest or weed control at 31 g/ha (Kochia (Kochia scoparia) [1]) | pest or weed control at 125 g/ha [2] | pest or weed control at 31 g/ha [2] | pest or weed control at 125 g/ha [3] | pest or weed control at 31 g/ha [3] | pest or weed control at 125 g/ha [4] | pest or weed control at 31 g/ha [4] | pest or weed control at 125 g/ha [5] | pest or weed control at 31 g/ha [5] | pest or weed control at 125 g/ha [6] | pest or weed control at 31 g/ha [6] | pest or weed control at 125 g/ha [7] | pest or weed control at 31 g/ha [7] | plant injury at 125 g/ha (corn (Zea mays)) | Corn plant response rating (crop injury, 0 = no effect, 100 = complete kill) at 31 g/ha (corn (Zea mays)) | plant injury at 125 g/ha [8] | plant injury at 31 g/ha [8] | pest or weed control at 31 g/ha (Kochia (Kochia scoparia) [9]) | pest or weed control at 125 g/ha (Kochia (Kochia scoparia) [9]) | also measured |
| --- | --- | --- | --- | --- | --- | --- | --- | --- | --- | --- | --- | --- | --- | --- | --- | --- | --- | --- | --- | --- | --- |
| CSc1ccccc1NC(=O)[C@H]1C(=O)N(C)C[C@@H]1c1ccc(F)c(OC(C)C)c1 [Compound 1076] | 0% | 0% | 50% | 0% | 0% | 0% | 0% | 0% | 0% | 0% | 20% | 0% | 50% | 0% | 0% | 0% | 0% | 0% | 0% | 0% | pest or weed control at 31 g/ha [10]: 0%; pest or weed control at 125 g/ha [10]: 90%; pest or weed control at 31 g/ha [11]: 0%; pest or weed control at 125 g/ha [11]: 0%; pest or weed control at 31 g/ha [12]: 0%; pest or weed control at 125 g/ha [12]: 20%; pest or weed control at 31 g/ha [13]: 10%; pest or weed control at 125 g/ha [13]: 0%; pest or weed control at 31 g/ha [14]: 80%; pest or weed control at 125 g/ha [14]: 100%; pest or weed control at 250 g/ha (rice (Oryra sativa)): 40%; pest or weed control at 250 g/ha [15]: 20%; pest or weed control at 250 g/ha [16]: 90%; pest or weed control at 250 g/ha [17]: 0% |
| Cc1c(F)cccc1NC(=O)[C@H]1C(=O)N(C)C[C@@H]1c1cc(C(F)F)cs1 [Compound 1089] | 0% | 0% | 90% | 60% | 0% | 0% | 0% | 0% | 20% | 0% | 30% | 0% | 90% | 80% | 30% | 0% | 30% | 0% | 0% | 20% | pest or weed control at 31 g/ha [10]: 90%; pest or weed control at 125 g/ha [10]: 90%; pest or weed control at 31 g/ha [11]: 0%; pest or weed control at 125 g/ha [11]: 10%; pest or weed control at 31 g/ha [12]: 0%; pest or weed control at 125 g/ha [12]: 0%; pest or weed control at 31 g/ha [13]: 0%; pest or weed control at 125 g/ha [13]: 60%; pest or weed control at 31 g/ha [14]: 100%; pest or weed control at 125 g/ha [14]: 100%; pest or weed control at 250 g/ha (rice (Oryra sativa)): 0%; pest or weed control at 250 g/ha [15]: 90%; pest or weed control at 250 g/ha [16]: 85%; pest or weed control at 250 g/ha [17]: 0% |
